Source: PubChem BioAssay (NCI)
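Each compound was tested at five concentrations against cells in 96-well plates for 48 hours. TGI marks complete inhibition of growth.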

Assays:
Experiment in all cases: NCI anticancer screen, dose series, 48 h
[1] = tested on: NCI-H226 lung
[2] = tested on: NCI-H23 lung
[3] = tested on: UACC-62 melanoma
[4] = tested on: UO-31 renal
[5] = tested on: HOP-92 NSCLC
[6] = tested on: OVCAR-4 ovarian
[7] = tested on: MOLT-4 leukemia

SMILES | TGI [1] [µM] | TGI [2] [µM] | TGI [3] [µM] | TGI [4] [µM] | TGI [5] [µM] | TGI [6] [µM] | TGI [7] [µM]
CCOC(=O)CC1=NC(=Nc2cc(Cl)ccc2Cl)SC1 | > 100 | > 100 | > 100 | > 100 | > 100 | > 100 | –
CCOC(=O)C1=C(NC(C)(C)C)OCC1=O | > 100 | > 100 | > 100 | > 100 | > 100 | > 100 | > 100
COc1ccc(CCNCc2cccc(OC)c2OC)cc1OC | – | > 100 | > 100 | > 100 | > 100 | > 100 | > 100
O=C(N/C(=C\c1ccc(Br)cc1)c1nc2ccccc2s1)c1ccccc1 | > 100 | > 100 | > 100 | > 100 | > 100 | > 100 | > 100
COC(=O)C1=C(c2cc(OC)c(OC)c(OC)c2)OC(c2cc(OC)c(OC)c(OC)c2)C1COC(C)=O (stereo not drawn) | > 100 | > 100 | > 100 | > 100 | > 100 | > 100 | 58.7
O=C1OC(c2ccccc2)=N/C1=C\c1c(O)cc(O)cc1O | – | > 100 | > 100 | > 100 | > 100 | > 100 | > 100
O=C(O)c1ccc(N=Nc2cc(S(=O)(=O)O)c3cccnc3c2O)cc1 | > 100 | > 100 | – | > 100 | > 100 | > 100 | > 100
CCc1ccccc1-n1c2nc(=O)n(C)c(=O)c-2nc2ccccc21 | 36.4 | 18.2 | 5.15 | 48.2 | – | 18.2 | 35.4
CC(=O)OCC(OC(C)=O)C(OC(C)=O)C(OC(C)=O)C(=O)CNn1c(-c2ccccc2)nc2ccc(Br)cc2c1=O (stereo not drawn) | > 100 | > 100 | > 100 | > 100 | – | > 100 | > 100
C[C@H]1COC2(c3ccccc3)CCC(=O)N12 (stereo partly drawn) | – | > 100 | > 100 | – | > 100 | > 100 | –
CC(C)CC(CNC(Cc1ccc(Cl)cc1)C(N)=O)NC(=O)C(Cc1cnc[nH]1)NC(=O)CNC(=O)C(NC(=O)C(C)NC(=O)C(Cc1c[nH]c2ccccc12)NC(=O)C(CCC(=O)O)NC(=O)C(N)Cc1ccccc1)C(C)C (stereo not drawn) | – | > 133 | > 133 | > 133 | < 0.0133 | > 133 | > 133
CN(/N=C/c1ccnc2ccccc12)c1ccc([N+](=O)[O-])cc1[N+](=O)[O-] | > 100 | > 100 | > 100 | > 100 | > 100 | > 100 | > 100
O=C(CCC(=O)N/N=C/c1ccccc1O)N/N=C/c1ccccc1O | > 100 | > 100 | > 100 | > 100 | 56.7 | > 100 | > 100
COc1ccc(/C(Cl)=C(\C=O)c2ccc(Br)cc2)cc1OC | > 100 | > 100 | > 100 | > 100 | 72.6 | > 100 | > 100
O=C(CCc1ccccc1)On1nnc2ccccc2c1=O | > 100 | > 100 | > 100 | > 100 | > 100 | > 100 | > 100
Cc1[nH]c(=O)nc(CC(O)(c2ccccc2)c2ccccc2)c1-c1ccccc1 | > 100 | > 100 | > 100 | > 100 | > 100 | > 100 | > 100
NS(=O)(=O)c1ccc(NC(=O)CC(=O)Nc2ccc(S(N)(=O)=O)cc2)cc1 | > 100 | > 100 | > 100 | > 100 | > 100 | > 100 | > 100
O=C(CCCNC(=O)OCc1ccccc1)OCc1ccc2c(c1)C(=O)c1ccccc1C2=O | 42.6 | > 100 | > 100 | > 100 | > 91.3 | > 100 | > 100
CCc1ccc(/C(C)=N/NC(N)=S)cc1 | – | > 100 | > 100 | > 100 | > 100 | > 100 | > 100
COc1ccc(/C=C/c2nc(=S)[nH][nH]2)cc1 | > 100 | > 100 | > 100 | > 100 | > 100 | > 100 | > 100
N#CCC(=O)N/N=C1/C(=O)NC(=O)C(=O)C1c1nc2ccccc2s1 (stereo not drawn) | > 100 | > 100 | > 100 | > 100 | > 100 | > 100 | > 100
CN(C)c1nc(N(C)C)n2nc(-c3ccccc3[N+](=O)[O-])nc2n1 | > 100 | > 100 | > 100 | > 100 | > 100 | > 100 | > 100
